According to patent US11701361B2, “p110-delta inhibitors treat and prevent autoimmunity while sparing the ability to mount an immune response to exogenous immunogens” (THE REGENTS OF THE UNIVERSITY OF COLORADO, priority 2018, dated 2023):

Tests used:
PLCγ = experiment: phosphorylated signaling intermediaries after BCR stimulation: PLCγ; format: cell-based, mouse; settings: all doses of inhibitor (15, 60, 490 nM), preincubation
Procedure: Cells are then washed 2× in serum free IMDM, and stimulated with 5 μg/ml of F(ab′)2 rabbit anti-mouse anti-IgG (H&L; Invitrogen) or 10 μg/ml anti-CD3-biotin (BD Biosciences)+20 μg/ml streptavidin (Sigma-Aldrich) for 2 minutes. Signaling was stopped by addition of 20% PFA to a final concentration of 2%, incubated at 37° C. for 15 minutes and resuspended in 100% ice-cold MeOH (directly from −80° C.). Cells were then placed on ice for 30 minutes and placed at −20° C. for storage. For analysis, cells were stained with B220-BV786, CD4-BV711, CD8-BV421, and/or pAKT-Alexa Fluor 647 (BD Biosciences), pPLCγ-PE (BD Biosciences), pBTK-BV421 (BD Biosciences) pSyk/Zap70-PE (BD Biosciences) at room temperature for 1 hour. Cells were washed 3 times and samples were acquired in triplicate on an LSR Fortessa X-20 (BD) with analysis using FlowJo software.

[1] = system: PTEN^−/+×SHIP-1^−/+ B cells; experiment: adoptive transfer of autoreactive PTEN-/+ x SHIP-1-/+ Ars/A1 B cells, loss of anergy; format: in vivo, mouse; settings: for number of autoreactive ASCs/spleen: day 14
From the text: Except where otherwise indicated, 6-16 week old mice were used in all experiments. Both male and female mice were used, but experiments were sex matched and both sexes gave identical results, with the exception of only female mice being used in the VH125.NOD experiments as female mice develop accelerated disease. hCD20-TamCre animals (Khalil, et al. Science 336: 1178-81) were intercrossed with mice carrying the rosa26-flox-STOP-YFP allele (Srinivas, et al., BMC Dev. Biol. 1:4), generating mice in which YFP is expressed in B cells upon Cre activation. These mice were crossed with Ars/A1 (Benschop, et al., Immunity 14: 33-43) transgenic mice to generate hCD20-TamCre×rosa26-flox-STOP-YFP×Ars/A1 mice. B cells from these mice will be referred to as WT Ars/A1. These mice were also crossed with SHIP-1^flox/flox mice (Karlsson, et al. J Exp Med 198: 333-40). hCD20-TamCre×rosa26-flox-STOP-YFP×Ars/A1 mice were also crossed to PTEN^flox/flox mice (Anzelon, et al., Nat Immunol 4: 287-94) and SHP-1^flox/flox mice to generate mice in which SHIP-1, PTEN and SHP-1 deletion can be induced in anergic B cells. hCD20-TamCre×rosa26-flox-STOP-YFP×PTEN^flox/flox×Ars/A1 were crossed to hCD20-TamCre×rosa26-flox-STOP-YFP×SHIP-1^flox/flox×Ars/A1 to generate hCD20-TamCre×rosa26-flox-STOP-YFPx PTEN^flox/wt×SHIP-1^flox/wt×Ars/A1 to allow for the double haploinsufficiency of both PTEN and SHIP-1 within B cells.
2 hours before adoptive transfer, C57BL/6 recipient mice received 200 rads irradiation. […] B cells from donor mice were isolated via depletion of CD43+ cells with anti-CD43-conjugated magnetic beads (MACS anti-mouse CD43; Miltenyi Biotec). Alternatively, CD4+ T cells were isolated via CD4 positive selection (MACS anti-mouse CD4 (L3T4) Miltenyi Biotec). Resultant populations were >97% pure based on flow cytometric analyses. Donor B cells were labeled with either CellTrace Violet (Molecular Probes) or CFSE (Molecular Probes) at 5 μM for 5 minutes at room temperature prior to transfer. Donor CD4 T cells were labeled with CFSE (Molecular Probes) at 5 μM for 5 minutes at room temperature prior to transfer. 1-2×10^6 donor cells in 200 μl PBS were adoptively transferred via IV injection. 24 hours post transfer, tamoxifen was administered to activate Cre. Tamoxifen (Sigma-Aldrich) was dissolved in 100% corn oil (Sigma-Aldrich) at 20 mg/ml. Recipient mice were injected IP with 100 μl (2 mg) on two consecutive days.
Diet dose (DD) is calculated by multiplying the single daily dose (SD) by the body weight of a mouse (BW) and dividing that by the daily food intake (FI) [DD=(SD×BW)/FI].
For VH125.NOD experiments animals are placed on control chow immediately after weaning.
Spleens were mechanically disrupted, single-cell suspensions were generated, and red blood cells were lysed with ammonium chloride TRIS. Cells were resuspended in PBS containing 1% FBS and incubated with indicated antibodies. For analysis of cell surface markers, antibodies against the following molecules were used: B220-PE (BioLegend), B220-BV786 (BD Biosciences), B220-BV510 (BioLegend), CD4-BV711 (BioLegend), CD8-BV421 (BioLegend), CD138-PECy7 (BioLegend), CD69-BV786 (BD Biosciences), CD86-PerCPCy5.5 (BioLegend). After cell surface staining, the cells were fixed and permeabilized with Cytofix/Cytoperm (BD) per manufacturer's instructions and stained with Dylight650-E4 anti-Ars/A1 idiotype (produced and conjugated in our laboratory) OR HEL-650 (produced and conjugated in our laboratory) and Alexa Fluor 488-anti-GFP (rabbit polyclonal; Life Technologies). Events were collected on a CyAn ADP (Dako) and subsequent analysis using FlowJo software (Tree Star).
For detection of IgM^a anti-Ars antibodies, microtiter plates were coated with 10 μg/ml Ars-BSA16 in PBS and blocked with 2 mg/ml BSA in PBS 0.05% Tween-20. For detection of IgM^a anti-HEL antibodies, microtiter plates were coated with 10 μg/ml HEL in PBS and blocked with 2 mg/ml BSA in PBS 0.05% Tween-20. […]

[2] = 0.9375 mg/kg, 3.75 mg/kg and 30 mg/kg chow, relative to vehicle control chow

`CC[C@H](Nc1ncnc2nc[nH]c12)c1nc2cccc(F)c2c(=O)n1-c1ccccc1` [idelalisib, 5-fluoro-3-phenyl-2-[(1S)-1-(7H-purin-6-ylamino)propyl]-4(3H)-quinazolinone] was tested, and the “phosphorylation of PLCγ” value (PLCγ) was “significantly reduced”, the “number of autoreactive ASCs/spleen” value ([1]; 0.9375 mg/kg and 3.75 mg/kg chow) was “significantly reduced” and the “serum autoantibody (IgM^a anti-Ars)” value ([1]; 0.9375 mg/kg, 3.75 mg/kg and 30 mg/kg chow, day 14, relative to untreated controls) was “significantly decreased”. For the same compound, the “plasmablast differentiation as measured by CD138 positivity” value [1, 2] was “significantly decreased”, the “proliferation of transferred B cells” value [1, 2] was “significantly decreased” and the “number of autoreactive ASCs/spleen” value ([1]; 30 mg/kg chow) was “undetected”. For the same compound, the “total Ars/A1 idiotype+ YFP+ B cells in the spleens (recovery of transferred cells)” value ([1]; day 14 post transfer, regardless of treatment) was “no significant difference”.
